This passage reports EC50 results from US20240287022A1 (Merck Sharp & Dohme LLC, priority 2021, published 2024).

Sequence of recombinant IL4I1 (Q96RQ9 22-567): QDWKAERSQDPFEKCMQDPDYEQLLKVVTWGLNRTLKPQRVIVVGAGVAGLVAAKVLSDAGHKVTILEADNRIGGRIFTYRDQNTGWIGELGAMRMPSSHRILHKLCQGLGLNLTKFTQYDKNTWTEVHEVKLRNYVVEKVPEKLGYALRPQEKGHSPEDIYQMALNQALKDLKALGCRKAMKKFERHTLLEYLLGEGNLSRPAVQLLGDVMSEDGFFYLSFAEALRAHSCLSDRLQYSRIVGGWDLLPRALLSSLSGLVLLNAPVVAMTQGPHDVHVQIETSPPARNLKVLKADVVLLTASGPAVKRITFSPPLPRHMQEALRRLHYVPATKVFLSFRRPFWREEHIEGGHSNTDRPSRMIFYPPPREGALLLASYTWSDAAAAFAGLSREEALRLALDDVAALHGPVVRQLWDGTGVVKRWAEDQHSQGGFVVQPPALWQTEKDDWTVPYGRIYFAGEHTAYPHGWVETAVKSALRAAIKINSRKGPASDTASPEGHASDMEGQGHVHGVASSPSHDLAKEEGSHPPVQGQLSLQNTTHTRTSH

This assay addresses recombinant IL4I1 (Homo sapiens (Human), UniProt Q96RQ9). The assay is described as follows: IL4I1 Enzymatic Assay (Amplex Red/HRP coupled H2O2 detection). Type of assay: biochemical. The settings on record: 1 nM IL4I1, 1 mM each Phe/Tyr/Trp, four-hour pre-incubation, 120 minutes reaction, top compound concentration of 10000 nM. Put shortly: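 Recombinant IL4I1 (1 nM final) was pre-incubated 4 h at ambient temperature with compound in 50 mM Hepes pH 7.0, 0.005% Tween20. Reaction ran 120 min with 1 mM each Phe/Tyr/Trp, 0.05 mM Amplex Red and 1 U/mL HRP. Resorufin fluorescence (544/590 nm) was read, and EC50 fitted from ten-point 1:3 titrations (top 10000 nM) by four-parameter regression.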
A word on the EC50: it is the concentration at which the effect is half-maximal. `O=c1[nH]c2ccccc2cc1Cc1cc(-c2ccccc2)no1` [Example 140, 3-((3-phenylisoxazol-5-yl)methyl)quinolin-2(1H)-one]: the EC50 came to 23.4 nM.

For `NS(=O)(=O)c1cccc(Cc2cc3ccccc3[nH]c2=O)c1` [Example 141, 3-((2-oxo-1,2-dihydroquinolin-3-yl)methyl)benzenesulfonamide], the EC50 worked out at 20.2 nM.

In the case of `O=C1NCCc2ccc(Cc3cc4ccccc4[nH]c3=O)cc21` [Example 77], the EC50 was 4.7 nM. As for `Cc1snnc1-c1nnc(Cc2cc3ccccc3[nH]c2=O)o1` [Example 17, 3-((5-(5-methyl-1,2,3-thiadiazol-4-yl)-1,3,4-oxadiazol-2-yl)methyl)quinolin-2(1H)-one], the half-maximal effective concentration (EC50) stood at 169 nM.

Regarding `O=c1[nH]c2ccc(Cc3cc4ccccc4[nH]c3=O)cc2o1` [Example 121, 6-((2-oxo-1,2-dihydroquinolin-3-yl)methyl)benzo[d]oxazol-2(3H)-one], the EC50 was 0.9 nM. On to `O=c1[nH]c2ccccc2cc1Cc1nnc(-c2cn[nH]c2)o1` [Example 6, 3-((5-(1H-pyrazol-4-yl)-1,3,4-oxadiazol-2-yl)methyl)quinolin-2(1H)-one], for which the EC50 worked out at 2.8 nM. The same measure for `O=c1[nH]c2ccccc2cc1Cc1nnc(-c2ccccc2)o1` [Example 5, 3-((5-phenyl-1,3,4-oxadiazol-2-yl)methyl)quinolin-2(1H)-one]: 42 nM; for `Cc1oncc1-c1nnc(Cc2cc3ccccc3[nH]c2=O)o1` [Example 29, 3-((5-(5-methylisoxazol-4-yl)-1,3,4-oxadiazol-2-yl)methyl)quinolin-2(1H)-one]: 547 nM; for `O=c1[nH]c2ncccc2cc1Cc1cccc(OC(F)(F)F)c1` [Example 106, 3-(3-(trifluoromethoxy)benzyl)-1,8-naphthyridin-2(1H)-one]: 958 nM. Regarding `CCS(=O)(=O)Nc1ccc(Cc2cc3ccccc3[nH]c2=O)cn1` [Example 47, N-(5-((2-oxo-1,2-dihydroquinolin-3-yl)methyl)pyridin-2-yl)ethanesulfonamide], the concentration for a half-maximal effect (EC50) amounted to 10.8 nM.

For the compound `O=c1[nH]c2ccccc2cc1Cc1nnc(Cc2ccc(Br)cc2)o1` [Example 23, 3-((5-(4-bromobenzyl)-1,3,4-oxadiazol-2-yl)methyl)quinolin-2(1H)-one], the EC50 stood at 126 nM. As to `Cn1c(=O)c(Cc2ccc(C(C)(C)O)cc2)cc2ccccc21` [Example 143, 3-(4-(2-hydroxypropan-2-yl)benzyl)-1-methylquinolin-2(1H)-one], the concentration giving a half-maximal response (EC50) worked out at 2.6 nM.

Turning to `NCc1cccc2cc(Cc3cccc(OC(F)(F)F)c3)c(=O)[nH]c12` [Example 178, 8-(aminomethyl)-3-(3-(trifluoromethoxy)benzyl)quinolin-2(1H)-one], the EC50 amounted to 99 nM.

Consider `O=C1CC(Cc2nnc(Cc3cc4ccccc4[nH]c3=O)o2)CC(=O)N1` [Example 37, 4-((5-((2-oxo-1,2-dihydroquinolin-3-yl)methyl)-1,3,4-oxadiazol-2-yl)methyl)piperidine-2,6-dione], for which the EC50 turned out to be 138 nM. The same measure for `O=C1NCc2ccc(Cc3cc4cnccc4[nH]c3=O)cc21` [Example 118, 3-((3-oxoisoindolin-5-yl)methyl)-1,6-naphthyridin-2(1H)-one]: 11.1 nM. As for `CC(C)(O)Cc1ccc(Cc2cc3ccccc3[nH]c2=O)cc1` [Example 179, 3-(4-(2-Hydroxy-2-methylpropyl)benzyl)quinolin-2(1H)-one], the figure is 4.9 nM; as for `CS(=N)(=O)Cc1ccc(Cc2cc3ccccc3[nH]c2=O)cc1` (single isomer, unassigned) [Example 187, 3-(4-(((S or R)-methylsulfonimidoyl)methyl)benzyl)quinolin-2(1H)-one], 28.6 nM; as for `CC1CN(c2ccc(Cc3cc4cnccc4[nH]c3=O)cc2)C(=O)O1` (single isomer, unassigned) [Example 188, (R or S)-5-methyl-3-(4-((2-oxo-1,2-dihydro-1,6-naphthyridin-3-yl)methyl)phenyl)oxazolidin-2-one], 12.3 nM.

Turning to `O=C1NC(=O)c2cc(Cc3cc4ccccc4[nH]c3=O)ccc21` [Example 185, 5-((2-oxo-1,2-dihydroquinolin-3-yl)methyl)isoindoline-1,3-dione], the EC50 is 9.1 nM. The same measure for `O=c1[nH]c2ccccc2cc1Cc1cnc(N2CCCCC2)s1` [Example 137, 3-((2-(piperidin-1-yl)thiazol-5-yl)methyl)quinolin-2(1H)-one]: 4.5 nM; for `O=c1[nH]c2ccccc2cc1Cc1cnn2c1CCC2` [Example 135, 3-((5,6-dihydro-4H-pyrrolo[1,2-b]pyrazol-3-yl)methyl)quinolin-2(1H)-one]: 11.3 nM; for `O=c1[nH]c2ccccc2cc1Cc1nnc(C2CC3(CCC3)C2)o1` [Example 21, 3-((5-(spiro[3.3]heptan-2-yl)-1,3,4-oxadiazol-2-yl)methyl)quinolin-2(1H)-one]: 177 nM. As for `O=c1[nH]c2ccccc2cc1Cc1nnc(-c2cnsc2)o1` [Example 30, 3-((5-(isothiazol-4-yl)-1,3,4-oxadiazol-2-yl)methyl)quinolin-2(1H)-one], the figure is 696 nM. The same measure for `CNCc1cccc2cc(Cc3cccc(OC(F)(F)F)c3)c(=O)[nH]c12` [Example 180, 8-((methylamino)methyl)-3-(3-(trifluoromethoxy)benzyl)quinolin-2(1H)-one]: 105 nM; for `N#CC1(c2ccc(Cc3cc4ccccc4[nH]c3=O)cn2)COC1` [Example 99, 3-(5-((2-oxo-1,2-dihydroquinolin-3-yl)methyl)pyridin-2-yl)oxetane-3-carbonitrile]: 5.9 nM.

Consider `Cn1cc2c(Cc3cc4cc(F)ccc4[nH]c3=O)cccc2n1` [Example 163, 6-fluoro-3-((2-methyl-2H-indazol-4-yl)methyl)quinolin-2(1H)-one], for which the EC50 stood at 5.4 nM. As for `CC(=O)NCc1ccc(Cc2cc3ccccc3[nH]c2=O)cc1Cl` [Example 66, N-(2-chloro-4-((2-oxo-1,2-dihydroquinolin-3-yl)methyl)benzyl)acetamide], the figure is 2 nM; as for `CC(=O)NCc1ccc(Cc2cc3ccccc3[nH]c2=O)cc1C` [Example 168, N-(2-methyl-4-((2-oxo-1,2-dihydroquinolin-3-yl)methyl)benzyl)acetamide], 3.4 nM; as for `O=C1CCc2cc(Cc3cc4cc(F)ccc4[nH]c3=O)ccc2N1` [Example 123, 6-fluoro-3-((2-oxo-1,2,3,4-tetrahydroquinolin-6-yl)methyl)quinolin-2(1H)-one], 3.7 nM.

As to `O=c1[nH]c2ccccc2cc1Cc1nnc(Cc2cccnn2)o1` [Example 25], the EC50 stood at 615 nM. As for `N#CC1(c2ccc(Cc3cc4ccccc4[nH]c3=O)cc2)CC(O)C1` (single isomer, unassigned) [Example 101A, 3-hydroxy-1-(4-((2-oxo-1,2-dihydroquinolin-3-yl)methyl)phenyl)cyclobutane-1-carbonitrile], the figure is 2.6 nM; as for `Cn1c(=O)c(Cc2cccc(OC(F)(F)F)c2)cc2ccccc21` [Example 144, 1-methyl-3-(3-(trifluoromethoxy)benzyl)quinolin-2(1H)-one], 7.2 nM.

On to `CS(=O)(=O)NCc1ncc(Cc2cc3ccccc3[nH]c2=O)cc1Cl` [Example 91, N-((3-chloro-5-((2-oxo-1,2-dihydroquinolin-3-yl)methyl)pyridin-2-yl)methyl)methanesulfonamide], for which the EC50 came out at 10.9 nM. In the case of `CC(O)C(C#N)c1ccc(Cc2cc3ccccc3[nH]c2=O)cc1` (single isomer, unassigned) [Example 102C, 3-hydroxy-2-(4-((2-oxo-1,2-dihydroquinolin-3-yl)methyl)phenyl)butanenitrile], the EC50 came out at 11.8 nM. The same measure for `CC(=O)NCc1ccc(Cc2cc3ccccc3[nH]c2=O)c(F)c1` [Example 167, N-(3-fluoro-4-((2-oxo-1,2-dihydroquinolin-3-yl)methyl)benzyl)acetamide]: 4.9 nM; for `CC(C)(O)CN1Cc2ccc(Cc3cc4ccccc4[nH]c3=O)cc2C1=O` [Example 94, 3-((2-(2-hydroxy-2-methylpropyl)-3-oxoisoindolin-5-yl)methyl)quinolin-2(1H)-one]: 29.6 nM.

For `N#Cc1ccc2[nH]c(=O)c(Cc3ccccc3)cc2c1` [Example 174, 3-Benzyl-2-oxo-1,2-dihydroquinoline-6-carbonitrile], the EC50 came out at 10000 nM. As for `Cc1nn(C)cc1-c1nnc(Cc2cc3ccccc3[nH]c2=O)o1` [Example 36, 3-((5-(1,3-dimethyl-1H-pyrazol-4-yl)-1,3,4-oxadiazol-2-yl)methyl)quinolin-2(1H)-one], the EC50 worked out at 30.7 nM. Regarding `N#Cc1cn[nH]c1-c1nnc(Cc2cc3ccccc3[nH]c2=O)o1` [Example 41, 5-(5-((2-oxo-1,2-dihydroquinolin-3-yl)methyl)-1,3,4-oxadiazol-2-yl)-1H-pyrazole-4-carbonitrile], the EC50 stood at 13.4 nM. The same measure for `O=c1[nH]c2ccccc2cc1Cc1nnc(-c2c(F)cccc2F)o1` [Example 3, 3-((5-(2,6-difluorophenyl)-1,3,4-oxadiazol-2-yl)methyl)quinolin-2(1H)-one]: 2 nM.
